Laboratory results from patent publication US20120302636A1, “METHOD OF TREATING A DISORDER ASSOCIATED WITH MTP” (priority 2009, published 2012).

Legend:
[1] = Example 2: repeated oral dose study of tablets QD or BID, safety; type: in vivo, human
Protocol: (§1) Each tablet contained 5 mg (BID), 10 mg (QD), 20 mg (QD), or 30 mg (QD).

Example 8: safety = type: in vivo, human
From the text: The study had 180 participants.

[2] = Example 7: weight loss and tolerability in obese subjects; settings: for mean changes from baseline in weight: 2 weeks
Protocol: This example involved a clinical study of the compound of formula (I), which was a randomized, double-blind, placebo-controlled, ascending dose study to evaluate the safety, tolerability and pharmacokinetics/pharmacodynamics of the compound of formula (I) tablets administered twice daily for two weeks in obese subjects.
The subjects were separated into four arms of nine (one with ten) test subjects (which were administered the compound of formula (I)) and three placebo subjects.

[3] = Example 2: plasma and urine pharmacokinetics; type: in vivo, human
Protocol: as §1

serum lipid levels = test: Example 2: serum lipid levels; type: in vivo, human
Protocol: as §1

[4] = Example 4: 8-week study in hyperlipidemia, safety; type: in vivo, human
Protocol: (§2) One hundred five Japanese patients with hyperlipidemia (LDL-C between 140 and 220 mg/dL; TG≦400 mg/dL) participated in the study. […] For the efficacy analysis, 95 subjects were observed (0.5 mg BID: 25 subjects, 1 mg BID: 24 subjects, 2 mg BID: 22 subjects, 4 mg BID: 24 subjects).

[5] = 3-month oral repeated dose toxicity study in dogs; type: in vivo; settings: 25 mg/kg
LDL-C levels = test: Example 4: 8-week study in hyperlipidemia, efficacy; type: in vivo, human
Protocol: as §2
The objective was to administer the compound of formula (I) orally to hyperlipidemic patients at a dose of 0.5, 1, 2, or 4 mg as capsules twice daily after the morning (e.g., breakfast) and evening meal (e.g., dinner) for eight weeks in order to explore a dose range in which the compound of formula (I) reduced LDL-C levels. In addition, the effects on lipid metabolism, safety, and pharmacokinetics of the compound of formula (I) were evaluated.

[6] = Example 8: pharmacokinetics (trough concentrations)
From the text: This example involved a clinical study of the compound of formula (I), which was a randomized, double-blind, placebo-controlled, parallel group study to evaluate the efficacy of the compound of formula (I) administered twice daily for twelve weeks in obese subjects.

[7] = 10, 20, 30 mg QD, initial dose Day 1

Structure (SMILES): CCOC(=O)C(COC(=O)Cc1ccc(NC(=O)c2ccccc2-c2ccc(C(F)(F)F)cc2)c(C(=O)N(C)C)c1)(C(=O)OCC)c1ccccc1 [compound of formula (I), diethyl 2-((2-(3-(dimethylcarbamoyl)-4-(4′-(trifiuoromethyl)biphenyl-2-ylcarboxamido)phenyl)acetoxy)methyl)-2-phenyl malonate]
- incidence of diarrhea ([1]; 5 mg BID): 100%
- incidence of moderate diarrhea ([1]; 5 mg BID): 66.7%
- incidence of vomiting (moderate) ([1]; 5 mg BID): 16.7%
- number of diarrhea events ([1]; 5 mg BID): 7
- subjects with adverse events (incidence) ([1]; 5 mg BID): 100.0%
- suitability as clinical dose for hyperlipidemic patients ([1]; 5 mg BID): inappropriate as a clinical dose
- subjects with adverse events (incidence) ([1]; 10 mg QD): 50.0%
- incidence of diarrhea ([1]; 20 mg QD): 16.7%
- incidence of moderate diarrhea ([1]; 20 mg QD): 16.7%
- number of diarrhea events ([1]; 20 mg QD): One
- subjects with adverse events (incidence) ([1]; 20 mg QD): 66.7%
- incidence of diarrhea ([1]; 30 mg QD): 66.7%
- incidence of moderate diarrhea ([1]; 30 mg QD): 50.0%
- number of diarrhea events ([1]; 30 mg QD): 4
- subjects with adverse events (incidence) ([1]; 30 mg QD): 66.7%
- vitamin E levels ([1]; 30 mg QD): decreased on Day 7
- subjects with queasiness ([1]; 30 mg dose): 2 of 6 subjects
- incidence of infection and infestation (SOC) ([1]; active group): 4.2%
- incidence of investigation (SOC) ([1]; active group): 20.8%
- incidence of metabolism and nutrition disorder (SOC) ([1]; active group): 4.2%
- incidence of gastrointestinal disorder (SOC) ([1]; active group, 24 subjects): 58.3%
- incidence of CK increased ([1]; overall compound group): 12.5%
- incidence of abdomen enlarged feeling ([1]; overall compound group): 20.8%
- incidence of diarrhea ([1]; overall compound group): 45.8%
- incidence of loose stools ([1]; overall compound group): 20.8%
- incidence of stomach discomfort ([1]; overall compound group): 25.0%
- number of diarrhea events ([1]; overall compound group): Twelve
- subjects with adverse events (incidence) ([1]; overall compound group, 24 subjects): 70.8%
- fat-soluble vitamin levels ([1]; remaining groups (10 mg QD, 20 mg QD, 5 mg BID)): did not decrease
- death or serious adverse events ([1]; tablets, 14 days): No death or other serious adverse events occurred
- incidence of drug-related decreased appetite (Example 8: safety; 1 mg BID): 4.4%
- incidence of drug-related decreased appetite (Example 8: safety; 2.5 mg BID): 20.0%
- subjects prematurely discontinued due to diarrhea (Example 8: safety; 2.5 mg BID): 1 subject
- incidence of drug-related decreased appetite (Example 8: safety; 3.5 mg BID): 22.2%
- subjects prematurely discontinued due to diarrhea (Example 8: safety; 3.5 mg BID): 2 subject
- tolerability (Example 8: safety; 1 to 3.5 mg BID, 12 weeks): generally well tolerated
- fat-soluble vitamins or coagulation factors (Example 8: safety; in vivo): no clinically significant changes
- liver function parameters (AST, ALT, alkaline phosphatase) PCS values (Example 8: safety; in vivo): no subject had a PCS value
- mean changes from baseline in weight ([2]; 1 mg BID): -0.31 kg
- average weight loss ([2]; 1 mg BID, 14 days): 0.31 kg
- mean changes from baseline in weight ([2]; 2.5 mg BID): -0.68 kg
- average weight loss ([2]; 2.5 mg BID, 14 days): 0.68 kg
- mean changes from baseline in weight ([2]; 3.5 mg BID): -1.39 kg
- average weight loss ([2]; 3.5 mg BID, 14 days): 1.39 kg
- average weight loss ([2]; 5 mg BID, 14 days): 2.07 kg
- average weight loss ([2]; 5 mg BID, Day 10 (n=9)): 2.32 kg
- subjects who withdrew due to GI-related adverse events prior to Day 14 ([2]; 5 mg dose group): six
- tolerability at 5 mg BID ([2]; obese subjects): not at 5 mg BID
- well tolerated doses ([2]; obese subjects): up to 3.5 mg BID
- subjects with Cmin detected sporadically ([3]; 5 mg BID): 4 of 6 subjects
- Cmin of the compound of formula (I) ([3]; 10 mg QD, Day 2 to 14): below the limit of quantization
- subjects with Cmin detected sporadically ([3]; 20 mg QD): 1 of 6 subjects
- subjects with Cmin detected sporadically ([3]; 30 mg QD): 4 of 6 subjects
- AUC0-24hr dose proportionality [3, 7]: greater than dose-proportional
- Cmax dose proportionality [3, 7]: greater than dose-proportional
- plasma compound of formula (I) ([3]; after initial dose on Day 1, all groups): quantifiable
- compound in urine ([3]; all groups): not quantifiable in urine
- Cmin of the compound of formula (I) ([3]; all subjects): less than 3 ng/mL
- Cmax and AUC0-24hr dose proportionality ([3]; final dose on Day 14): dose-proportional
- postprandial elevations for TG, HDL-TG, LDL-TG, Midband-TG, VLDL-TG, CM-TG, and ApoB48 (serum lipid levels; active group): suppressed
- TC, HDL-C, LDL-C, and ApoB values (serum lipid levels; by and after Day 7): decreased
- incidence of moderate diarrhea ([4]; 0.5 mg BID): 8.0%
- number of adverse events ([4]; 0.5 mg BID): 20
- number of moderate diarrhea events ([4]; 0.5 mg BID): 2
- subjects with adverse events (incidence) ([4]; 0.5 mg BID): 44.0%
- incidence of diarrhea ([4]; 1 mg BID): 15.9%
- incidence of moderate diarrhea ([4]; 1 mg BID): 0.0%
- number of adverse events ([4]; 1 mg BID): 60
- number of diarrhea events ([4]; 1 mg BID): 6
- number of moderate diarrhea events ([4]; 1 mg BID): 0
- subjects with adverse events (incidence) ([4]; 1 mg BID): 75.0%
- incidence of diarrhea ([4]; 2 mg BID): 24.0%
- incidence of moderate diarrhea ([4]; 2 mg BID): 12.0%
- number of adverse events ([4]; 2 mg BID): 51
- number of diarrhea events ([4]; 2 mg BID): 12
- number of moderate diarrhea events ([4]; 2 mg BID): 4
- subjects with adverse events (incidence) ([4]; 2 mg BID): 80.0%
- incidence of diarrhea ([4]; 4 mg BID): 40.7%
- incidence of moderate diarrhea ([4]; 4 mg BID): 29.6%
- number of adverse events ([4]; 4 mg BID): 82
- number of diarrhea events ([4]; 4 mg BID): 21
- number of moderate diarrhea events ([4]; 4 mg BID): 13
- subjects with adverse events (incidence) ([4]; 4 mg BID): 85.2%
- death or serious adverse events ([4]; 0.5-4 mg BID capsules, 8 weeks): neither death nor other serious adverse events occurred
- events of gastrointestinal disorders ([4]; 105 subjects): 117
- events of infections and infestations ([4]; 105 subjects): 11
- events of investigations ([4]; 105 subjects): 49
- events of metabolism and nutrition disorders ([4]; 105 subjects): 7
- events of musculoskeletal, and connective tissue disorders ([4]; 105 subjects): 7
- incidence of gastrointestinal disorders (SOC) ([4]; 105 subjects): 47.6%
- incidence of infections and infestations (SOC) ([4]; 105 subjects): 9.5%
- incidence of investigations (SOC) ([4]; 105 subjects): 31.4%
- incidence of metabolism and nutrition disorders (SOC) ([4]; 105 subjects): 6.7%
- incidence of moderate adverse events ([4]; 105 subjects): 18.1%
- incidence of musculoskeletal, and connective tissue disorders (SOC) ([4]; 105 subjects): 6.7%
- laboratory abnormality ALT, subjects ([4]; 105 subjects): 5.7%
- laboratory abnormality CPK, subjects ([4]; 105 subjects): 6.7%
- laboratory abnormality CRP, subjects ([4]; 105 subjects): 3.8%
- laboratory abnormality IP, subjects ([4]; 105 subjects): 2.9%
- laboratory abnormality γ-GTP, subjects ([4]; 105 subjects): 3.8%
- number of moderate adverse events ([4]; 105 subjects): Twenty-six
- number of adverse events ([4]; all 105 subjects): 213
- subjects with adverse events (incidence) ([4]; all 105 subjects): 71.45%
- fat-soluble vitamins (vitamin A, 25-OH vitamin D, and vitamin E) ([4]; in vivo): no clinically significant changes
- subjects withdrawn from the study treatment because of adverse events ([4]; of 105 subjects): four
- toxicity findings ([5]; 3-month safety study): no toxicity findings
- vitamins D and E ([5]; 3 months oral): decreased or tended to decrease
- mean percent change in LDL-C levels at Week 8 from baseline (LDL-C levels; 0.5 mg BID): −4.3%
- mean percent change in LDL-C levels at Week 8 from baseline (LDL-C levels; 1 mg BID): −4.5%
- mean percent change in LDL-C levels at Week 8 from baseline (LDL-C levels; 2 mg BID): −12.2%
- mean percent change in LDL-C levels at Week 8 from baseline (LDL-C levels; 4 mg BID): −12.3%
- ApoB and ApoE levels (LDL-C levels; 2 and 4 mg BID): decreased
- TC levels (LDL-C levels; 2 and 4 mg BID, throughout treatment): decreased
- insulin, hemoglobin Alc, adiponectin, or leptin level (LDL-C levels; in vivo): did not affect
- ApoB48, ApoA-I, ApoA-II, ApoC-II, and ApoC-III levels (LDL-C levels; treatment period): no significant changes
- time course of TG or HDL-C levels (LDL-C levels; treatment period): no definite trend or dose correlation
- trough concentrations of the compound of formula (I) ([6]; 1 mg BID): not quantifiable
- trough concentrations of the compound of formula (I) ([6]; 2.5 and 3.5 mg BID): quantifiable in a few subjects
